Data reported in patent publication EP0908457B1, “3-(1,2-benzisothiazol- and isoxazol-5-Y1)-2,4(1H,3H)-pyrimidinedione or thione and 3-(1,2-benzisothiazol- and isoxazol-5-y1)-4(3H)-pyrimidinone or thione herbicidal agents” (BASF AKTIENGESELLSCHAFT, priority 1997, dated 1999).

Key:
Type in all cases: in vivo
[1] = tested on: Echinochloa oryzoides (Ard.) Fritsch.; experiment: Preemergence weed control under flooded paddy conditions, ECHORC (Watergrass (Calif.)); conditions: preemergence, flooded paddy; for ECHORC herbicidal rating: rated three to four weeks after treatment; for herbicidal effect rating, ECHORC: rated 3-4 weeks after treatment
Cyperus iria = experiment: Preemergence weed control under flooded paddy conditions, CYPIR (Rice Flatsedge); conditions: preemergence, flooded paddy; for CYPIR herbicidal rating: rated three to four weeks after treatment; for herbicidal effect rating, CYPIR: rated 3-4 weeks after treatment
[2] = tested on: Cyperus serotinus, Rottb.; experiment: Preemergence weed control under flooded paddy conditions, CYPSE (Flatsedge); conditions: preemergence; for CYPSE herbicidal rating: rated three to four weeks after treatment; for herbicidal effect rating, CYPSE: rated 3-4 weeks after treatment
[3] = tested on: Monochoria vaginalis, Presl.; experiment: Preemergence weed control under flooded paddy conditions, MOOVA (Monochoria); conditions: preemergence, flooded paddy; for MOOVA herbicidal rating: rated three to four weeks after treatment; for herbicidal effect rating, MOOVA: rated 3-4 weeks after treatment
Sagittaria pygmaea, L. = experiment: Preemergence weed control under flooded paddy conditions, SAGPY (Arrowhead (Pygmaea)); conditions: preemergence, flooded paddy; for SAGPY herbicidal rating: rated three to four weeks after treatment; for herbicidal effect rating, SAGPY: rated 3-4 weeks after treatment

| Compound | ECHORC herbicidal rating ([1]; 0.0320 kg/ha) | ECHORC herbicidal rating ([1]; 0.0620 kg/ha) | ECHORC herbicidal rating ([1]; 0.1250 kg/ha) | ECHORC herbicidal rating ([1]; 0.2500 kg/ha) | CYPIR herbicidal rating (Cyperus iria; 0.0320 kg/ha) | CYPIR herbicidal rating (Cyperus iria; 0.0620 kg/ha) | CYPIR herbicidal rating (Cyperus iria; 0.1250 kg/ha) | CYPIR herbicidal rating (Cyperus iria; 0.2500 kg/ha) | CYPSE herbicidal rating ([2]; 0.2500 kg/ha) | MOOVA herbicidal rating ([3]; 0.0320 kg/ha) | MOOVA herbicidal rating ([3]; 0.0620 kg/ha) | MOOVA herbicidal rating ([3]; 0.1250 kg/ha) | MOOVA herbicidal rating ([3]; 0.2500 kg/ha) | SAGPY herbicidal rating (Sagittaria pygmaea, L.; 0.0320 kg/ha) | SAGPY herbicidal rating (Sagittaria pygmaea, L.; 0.0620 kg/ha) | SAGPY herbicidal rating (Sagittaria pygmaea, L.; 0.1250 kg/ha) | SAGPY herbicidal rating (Sagittaria pygmaea, L.; 0.2500 kg/ha) | CYPSE herbicidal rating ([2]; 0.1250 kg/ha) | further results |
| --- | --- | --- | --- | --- | --- | --- | --- | --- | --- | --- | --- | --- | --- | --- | --- | --- | --- | --- | --- |
| Cn1c(C(F)(F)F)cc(=O)n(-c2ccc3snc(COC(=O)c4ccc(Cl)nc4)c3c2)c1=O [Example 481, 2,4(1H,3H)-Pyrimidinedione, 3-[3-(hydroxymethyl)-1,2-benzisothiazol-5-yl]-1-methyl-6-(trifluoromethyl)-, 6-chloronicotinate (ester)] | 0.0 | 2.0 | 9.0 | 9.0 | 0.0 | 2.0 | 6.0 | 9.0 | 6.0 | 6.0 | 7.0 | 7.0 | 9.0 | 0.0 | 0.0 | 0.0 | – | – | – |
| Cn1c(C(F)(F)F)cc(=O)n(-c2ccc3snc(COC(=O)C4CC4)c3c2)c1=O [Example 496, 2,4(1H,3H)-Pyrimidinedione, 3-[3-(hydroxymethyl)-1,2-benzisothiazol-5-yl]-1-methyl-6-(trifluoromethyl)-, cyclopropanecarboxylate (ester)] | 4.0 | 4.0 | 6.0 | 7.0 | 0.0 | 7.0 | 7.0 | 9.0 | 7.0 | 0.0 | 6.0 | 6.0 | 8.0 | 0.0 | 0.0 | 3.0 | 6.0 | – | – |
| Cn1c(C(F)(F)F)cc(=O)n(-c2ccc3snc(COC(=O)c4ccco4)c3c2)c1=O [Example 497, 2,4(1H,3H)-Pyrimidinedione, 3-[3-(hydroxymethyl)-1,2-benzisothiazol-5-yl]-1-methyl-6-(trifluoromethyl)-, 2-furoate (ester)] | 0.0 | 0.0 | 4.0 | 7.0 | 5.0 | 6.0 | 9.0 | 9.0 | 9.0 | 6.0 | 7.0 | 9.0 | 9.0 | 0.0 | 0.0 | 2.0 | 6.0 | 6.0 | – |
| Cn1c(C(F)(F)F)cc(=O)n(-c2ccc3snc(COC(=O)C(C)(C)C)c3c2)c1=O [Example 498, 2,4(1H,3H)-Pyrimidinedione, 3-[3-(hydroxymethyl)-1,2-benzisothiazol-5-yl]-1-methyl-6-(trifluoromethyl)-, pivalate (ester)] | 0.0 | 3.0 | 5.0 | 6.0 | 2.0 | 5.0 | 9.0 | 9.0 | – | 4.0 | 5.0 | 7.0 | 8.0 | 0.0 | 0.0 | 3.0 | 6.0 | 0.0 | – |
| COc1ccc(CC(=O)OCc2nsc3ccc(-n4c(=O)cc(C(F)(F)F)n(C)c4=O)cc23)cc1OC [Example 502, 2,4(1H,3H)-Pyrimidinedione, 3-[3-(hydroxymethyl)-1,2-benzisothiazol-5-yl]-1-methyl-6-(trifluoromethyl)-, (3,4-dimethoxyphenyl)acetate (ester)] | 3.0 | 3.0 | 5.0 | 7.0 | 4.0 | 6.0 | 9.0 | 9.0 | 5.0 | 6.0 | 6.0 | 7.0 | 9.0 | 0.0 | 2.0 | 5.0 | 9.0 | – | CYPSE herbicidal rating ([2]; 0.0320 kg/ha): 0.0; CYPSE herbicidal rating ([2]; 0.0620 kg/ha): 2.0 |
| COc1ccc(OC)c(CC(=O)OCc2nsc3ccc(-n4c(=O)cc(C(F)(F)F)n(C)c4=O)cc23)c1 [Example 503, 2,4(1H,3H)-Pyrimidinedione, 3-[3-(hydroxymethyl)-1,2-benzisothiazol-5-yl]-1-methyl-6-(trifluoromethyl)-, (2,5-dimethoxyphenyl)acetate (ester)] | 2.0 | 4.0 | 6.0 | 6.0 | 0.0 | 6.0 | 9.0 | 7.0 | 6.0 | 7.0 | 9.0 | 9.0 | 9.0 | 0.0 | 3.0 | 4.0 | 8.0 | 5.0 | – |
| CC/C=C/CCCCCCCCCCOC(=O)COc1ccc(C)cc1-c1nsc2ccc(-n3c(=O)cc(C(F)(F)F)n(C)c3=O)cc12 [Example 526, Acetic acid, {{2-{5-[3,6-dihydro-3-methyl-2,6-dioxo-4-(trifluoromethyl)-1(2H)-pyrimidinyl]-1,2-benzisothiazol-3-yl}-p-tolyl}oxy}-, 11-tetradecenyl ester, (E)-] | – | – | – | – | – | – | – | – | – | – | – | – | – | – | – | – | – | – | herbicidal effect rating, ECHORC ([1]; Rate 0.0320 kg/ha): 2.0; herbicidal effect rating, ECHORC ([1]; Rate 0.0620 kg/ha): 2.0; herbicidal effect rating, ECHORC ([1]; Rate 0.1250 kg/ha): 4.0; herbicidal effect rating, ECHORC ([1]; Rate 0.2500 kg/ha): 6.0; herbicidal effect rating, CYPIR (Cyperus iria; Rate 0.0320 kg/ha): 2.0; herbicidal effect rating, CYPIR (Cyperus iria; Rate 0.0620 kg/ha): 4.0; herbicidal effect rating, CYPIR (Cyperus iria; Rate 0.1250 kg/ha): 7.0; herbicidal effect rating, CYPIR (Cyperus iria; Rate 0.2500 kg/ha): 9.0; herbicidal effect rating, CYPSE ([2]; Rate 0.0320 kg/ha): 0.0; herbicidal effect rating, CYPSE ([2]; Rate 0.0620 kg/ha): 0.0; herbicidal effect rating, CYPSE ([2]; Rate 0.1250 kg/ha): 0.0; herbicidal effect rating, CYPSE ([2]; Rate 0.2500 kg/ha): 0.0; herbicidal effect rating, MOOVA ([3]; Rate 0.0320 kg/ha): 8.0; herbicidal effect rating, MOOVA ([3]; Rate 0.0620 kg/ha): 9.0; herbicidal effect rating, MOOVA ([3]; Rate 0.1250 kg/ha): 9.0; herbicidal effect rating, MOOVA ([3]; Rate 0.2500 kg/ha): 9.0; herbicidal effect rating, SAGPY (Sagittaria pygmaea, L.; Rate 0.0320 kg/ha): 0.0; herbicidal effect rating, SAGPY (Sagittaria pygmaea, L.; Rate 0.0620 kg/ha): 0.0; herbicidal effect rating, SAGPY (Sagittaria pygmaea, L.; Rate 0.1250 kg/ha): 0.0; herbicidal effect rating, SAGPY (Sagittaria pygmaea, L.; Rate 0.2500 kg/ha): 0.0 |
| Cc1ccc(OCC(=O)OCCCCCO[Si](C)(C)C(C)(C)C)c(-c2nsc3ccc(-n4c(=O)cc(C(F)(F)F)n(C)c4=O)cc23)c1 [Example 534, Acetic acid, {{2-{5-[3,6-dihydro-3-methyl-2,6-dioxo-4-(trifluoromethyl)-1(2H)-pyrimidinyl]-1,2-benzisothiazol-3-yl}-p-tolyl}oxy}-, 5-(tert-butyldimethylsiloxy)pentyl ester] | – | – | – | – | – | – | – | – | – | – | – | – | – | – | – | – | – | – | herbicidal effect rating, ECHORC ([1]; Rate 0.0320 kg/ha): 3.5; herbicidal effect rating, ECHORC ([1]; Rate 0.0620 kg/ha): 4.5; herbicidal effect rating, ECHORC ([1]; Rate 0.1250 kg/ha): 9.0; herbicidal effect rating, ECHORC ([1]; Rate 0.2500 kg/ha): 9.0; herbicidal effect rating, CYPIR (Cyperus iria; Rate 0.0320 kg/ha): 0.0; herbicidal effect rating, CYPIR (Cyperus iria; Rate 0.0620 kg/ha): 3.0; herbicidal effect rating, CYPIR (Cyperus iria; Rate 0.1250 kg/ha): 3.0; herbicidal effect rating, CYPIR (Cyperus iria; Rate 0.2500 kg/ha): 9.0; herbicidal effect rating, CYPSE ([2]; Rate 0.0320 kg/ha): 0.0; herbicidal effect rating, CYPSE ([2]; Rate 0.0620 kg/ha): 0.0; herbicidal effect rating, CYPSE ([2]; Rate 0.1250 kg/ha): 0.0; herbicidal effect rating, CYPSE ([2]; Rate 0.2500 kg/ha): 0.0; herbicidal effect rating, MOOVA ([3]; Rate 0.0320 kg/ha): 4.0; herbicidal effect rating, MOOVA ([3]; Rate 0.0620 kg/ha): 9.0; herbicidal effect rating, MOOVA ([3]; Rate 0.1250 kg/ha): 9.0; herbicidal effect rating, MOOVA ([3]; Rate 0.2500 kg/ha): 9.0; herbicidal effect rating, SAGPY (Sagittaria pygmaea, L.; Rate 0.0320 kg/ha): 0.0; herbicidal effect rating, SAGPY (Sagittaria pygmaea, L.; Rate 0.0620 kg/ha): 0.0; herbicidal effect rating, SAGPY (Sagittaria pygmaea, L.; Rate 0.1250 kg/ha): 0.0; herbicidal effect rating, SAGPY (Sagittaria pygmaea, L.; Rate 0.2500 kg/ha): 0.0 |
